Results on 19 compounds are retold here after ChEMBL document CHEMBL1909046, “DrugMatrix in vitro pharmacology data”.

Experiment [1] deals with Sodium-dependent noradrenaline transporter (Homo sapiens, UniProt P23975). The experiment can be described thus: DRUGMATRIX: Norepinephrine Transporter radioligand binding (ligand: [125I] RTI-55). It counts as cell membranes, MDCK, Membrane. The note with it: Not Active = under 50% inhibition at 10 µM; for Ki: read-out: Ki.
Experiment [2] is described as follows: DRUGMATRIX: Leukotriene, BLT (LTB4) radioligand binding (ligand: [3H]LTB4). In kind it is cell membranes, Membrane. The note with it: u-937; Not Active = under 50% inhibition at 10 µM.
The target of experiment [3] is Estrogen receptor beta (Homo sapiens, UniProt Q92731). The note with it: sf9. Also: in other assays of this panel Not Active means under 50% inhibition at 10 µM.
Chain of Estrogen receptor beta (Q92731 whole entry): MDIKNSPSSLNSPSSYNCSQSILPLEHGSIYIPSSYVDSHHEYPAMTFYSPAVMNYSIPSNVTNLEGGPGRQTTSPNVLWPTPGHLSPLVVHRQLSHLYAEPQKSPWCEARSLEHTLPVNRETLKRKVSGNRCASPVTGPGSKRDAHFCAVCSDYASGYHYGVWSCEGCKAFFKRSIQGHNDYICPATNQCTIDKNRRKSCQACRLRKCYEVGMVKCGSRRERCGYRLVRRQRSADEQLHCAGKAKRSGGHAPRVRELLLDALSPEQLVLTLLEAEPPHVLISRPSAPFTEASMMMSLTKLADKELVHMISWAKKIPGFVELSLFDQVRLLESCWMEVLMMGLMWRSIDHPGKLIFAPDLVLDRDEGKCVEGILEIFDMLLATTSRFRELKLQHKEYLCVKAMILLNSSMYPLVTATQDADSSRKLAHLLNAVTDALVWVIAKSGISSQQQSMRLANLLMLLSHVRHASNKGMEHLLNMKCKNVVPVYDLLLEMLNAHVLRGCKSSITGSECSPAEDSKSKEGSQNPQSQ
A short description of experiment [4]: DRUGMATRIX: GABAA, Flunitrazepam, Central radioligand binding (ligand: [3H] Flunitrazepam). In kind it is cell membranes, Rattus norvegicus, Wistar, Brain, Membrane. The note with it: Not Active = under 50% inhibition at 10 µM.
Experiment [5] has as its target C-C chemokine receptor type 5 (Homo sapiens, UniProt P51681). In kind it is cell membranes, Membrane. The following applies: hek293. Also: in other assays of this panel Not Active means under 50% inhibition at 10 µM.
Experiment [6] is described as follows: DRUGMATRIX: Glutamate, AMPA radioligand binding (ligand: [3H] AMPA). It counts as cell membranes, Rattus norvegicus, Wistar, Cerebral cortex, Membrane. The following applies: Not Active = under 50% inhibition at 10 µM.
Experiment [7] concerns the target T1, D(4) dopamine receptor (Homo sapiens, UniProt P21917).
T1 sequence (P21917 whole entry): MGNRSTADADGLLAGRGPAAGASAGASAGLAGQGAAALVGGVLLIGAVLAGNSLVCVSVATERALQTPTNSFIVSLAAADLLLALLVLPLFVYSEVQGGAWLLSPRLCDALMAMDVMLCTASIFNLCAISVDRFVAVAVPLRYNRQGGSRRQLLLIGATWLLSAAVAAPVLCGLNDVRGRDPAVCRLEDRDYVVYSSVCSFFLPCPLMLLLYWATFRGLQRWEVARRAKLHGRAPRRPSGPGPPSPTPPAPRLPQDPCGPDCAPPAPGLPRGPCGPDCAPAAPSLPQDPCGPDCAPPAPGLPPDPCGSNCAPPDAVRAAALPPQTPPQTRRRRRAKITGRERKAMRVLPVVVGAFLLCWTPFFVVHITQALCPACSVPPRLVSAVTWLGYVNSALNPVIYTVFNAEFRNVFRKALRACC
The experiment can be described thus: DRUGMATRIX: Dopamine D4.2 radioligand binding (ligand: [3H] Spiperone). In kind it is cell membranes, CHO-K1, Membrane. The note with it: cho-k1; Not Active = under 50% inhibition at 10 µM.

Chain of Sodium-dependent noradrenaline transporter (P23975 whole entry): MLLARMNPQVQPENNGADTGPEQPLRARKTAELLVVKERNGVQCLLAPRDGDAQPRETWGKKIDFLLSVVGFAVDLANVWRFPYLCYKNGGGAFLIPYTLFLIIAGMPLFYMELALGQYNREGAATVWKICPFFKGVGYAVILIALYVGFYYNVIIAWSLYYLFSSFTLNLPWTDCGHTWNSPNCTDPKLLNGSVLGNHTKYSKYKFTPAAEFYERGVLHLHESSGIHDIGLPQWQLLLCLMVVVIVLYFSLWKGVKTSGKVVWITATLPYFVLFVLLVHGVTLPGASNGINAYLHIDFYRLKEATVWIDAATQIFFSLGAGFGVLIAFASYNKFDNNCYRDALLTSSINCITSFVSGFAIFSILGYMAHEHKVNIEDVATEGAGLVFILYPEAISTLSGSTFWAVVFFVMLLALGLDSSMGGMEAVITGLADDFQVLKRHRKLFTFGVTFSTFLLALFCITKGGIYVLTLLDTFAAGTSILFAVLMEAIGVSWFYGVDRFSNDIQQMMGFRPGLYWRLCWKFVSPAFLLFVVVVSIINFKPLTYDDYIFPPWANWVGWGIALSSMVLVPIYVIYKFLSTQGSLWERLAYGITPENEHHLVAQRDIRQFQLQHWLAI
Chain of C-C chemokine receptor type 5 (P51681 whole entry): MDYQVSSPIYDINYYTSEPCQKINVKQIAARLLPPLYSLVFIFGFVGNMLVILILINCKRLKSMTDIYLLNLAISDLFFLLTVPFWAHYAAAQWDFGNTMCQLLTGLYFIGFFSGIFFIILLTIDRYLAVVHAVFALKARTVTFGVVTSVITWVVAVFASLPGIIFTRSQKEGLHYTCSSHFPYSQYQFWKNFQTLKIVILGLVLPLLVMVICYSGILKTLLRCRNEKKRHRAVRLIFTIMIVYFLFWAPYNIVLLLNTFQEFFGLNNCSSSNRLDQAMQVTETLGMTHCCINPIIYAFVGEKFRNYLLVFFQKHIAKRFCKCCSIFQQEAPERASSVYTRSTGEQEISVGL

As for `Cc1cn[nH]c1` [FOMEPIZOLE], the IC50 result in experiment [1] (mdck), in experiment [2], in experiment [3], in experiment [4], in experiment [5] and in experiment [6] was “Not Active” throughout. Further, in experiment [7], the IC50 result is given as “Not Active”. For the same compound, the Ki entry in experiment [2], in experiment [4] and in experiment [6] was “Not Active” in each case.
On to `NC[C@@H]1O[C@H](O[C@H]2[C@@H](O)[C@H](O[C@@H]3[C@@H](O)[C@H](N)C[C@H](N)[C@H]3O[C@H]3O[C@H](CN)[C@@H](O)[C@H](O)[C@H]3N)O[C@@H]2CO)[C@H](N)[C@@H](O)[C@@H]1O` [FRAMYCETIN], for which the IC50 entry in experiment [1] (mdck), in experiment [2], in experiment [3], in experiment [4], in experiment [5] and in experiment [6] was “Not Active” each time. In addition, the IC50 entry in experiment [7] is “Not Active”. In addition, the Ki entry in experiment [2], in experiment [4] and in experiment [6] was “Not Active” each time.
Consider `C[C@H]([C@](O)(Cn1cncn1)c1ccc(F)cc1F)S(C)(=O)=O` [GENACONAZOLE], for which the IC50 result in experiment [1] (mdck), in experiment [2], in experiment [3], in experiment [4], in experiment [5] and in experiment [6] was “Not Active” in each case. Further, in experiment [7], the IC50 result is recorded as “Not Active”. In addition, the Ki entry in experiment [2], in experiment [4] and in experiment [6] was “Not Active” in each case.
On to `Cc1cnc(C(=O)NCCc2ccc(S(=O)(=O)NC(=O)NC3CCCCC3)cc2)cn1` [GLIPIZIDE], for which the IC50 entry in experiment [1] (mdck), in experiment [2], in experiment [3], in experiment [4], in experiment [5] and in experiment [6] was “Not Active” throughout. In experiment [7], the IC50 entry was “Not Active”. Further, the Ki entry in experiment [2], in experiment [4] and in experiment [6] was “Not Active” throughout.
On to `Cc1c(F)c(N2CCNC(C)C2)cc2c1c(=O)c(C(=O)O)cn2C1CC1` (configuration not stated) [GREPAFLOXACIN], for which the IC50 result in experiment [1] (mdck), in experiment [2], in experiment [3], in experiment [4], in experiment [5] and in experiment [6] was “Not Active” in each case. The IC50 result in experiment [7] is “Not Active”. The Ki result in experiment [2], in experiment [4] and in experiment [6] was “Not Active” in each case.
For `COc1ccccc1OCC(O)CO` (configuration not stated) [GUAIFENESIN], the IC50 result in experiment [1] (mdck), in experiment [2], in experiment [3], in experiment [4], in experiment [5] and in experiment [6] was “Not Active” in each case. Moreover, the IC50 entry in experiment [7] is given as “Not Active”. In addition, the Ki entry in experiment [2], in experiment [4] and in experiment [6] was “Not Active” in each case.
On to `CC[C@H](C)C(=O)O[C@H]1C[C@@H](C)C=C2C=C[C@H](C)[C@H](CC[C@@H]3C[C@@H](O)CC(=O)O3)[C@H]21` [LOVASTATIN], for which the IC50 is 8.75 µM in experiment [1] (read-out: IC50); “Not Active” in experiment [2]; “Not Active” in experiment [3]; “Not Active” in experiment [4]; “Not Active” in experiment [5]; “Not Active” in experiment [6]. In addition, in experiment [7], the IC50 result is listed as “Not Active”. Besides, the Ki in experiment [1] is 8.68 µM; in experiment [2] it was “Not Active”; in experiment [4] it was “Not Active”; in experiment [6], “Not Active”.
Take `CC(C(=O)O)c1ccc(CC2CCCC2=O)cc1` (configuration not stated) [LOXOPROFEN]: the IC50 result in experiment [1] (mdck), in experiment [2], in experiment [3], in experiment [4], in experiment [5] and in experiment [6] was “Not Active” in each case. Besides, the IC50 result in experiment [7] is “Not Active”. The Ki entry in experiment [2], in experiment [4] and in experiment [6] was “Not Active” throughout.
Turning to `Cc1cccc(Nc2ccccc2C(=O)O)c1C` [MEFENAMIC ACID], the half-maximal inhibitory concentration (IC50) entry in experiment [1] (mdck), in experiment [2], in experiment [3], in experiment [4], in experiment [5] and in experiment [6] was “Not Active” in each case. Moreover, the IC50 entry in experiment [7] was “Not Active”. In addition, the Ki entry in experiment [2], in experiment [4] and in experiment [6] was “Not Active” throughout.
For `CN(Cc1cnc2nc(N)nc(N)c2n1)c1ccc(C(=O)N[C@@H](CCC(=O)O)C(=O)O)cc1` [METHOTREXATE], the IC50 entry in experiment [1] (mdck), in experiment [2], in experiment [3], in experiment [4], in experiment [5] and in experiment [6] was “Not Active” each time. Besides, the IC50 entry in experiment [7] is reported as “Not Active”. The Ki result in experiment [2], in experiment [4] and in experiment [6] was “Not Active” throughout.
`COC(=O)c1ccccc1O` [METHYL SALICYLATE]: the IC50 entry in experiment [1] (mdck), in experiment [2], in experiment [3], in experiment [4], in experiment [5] and in experiment [6] was “Not Active” in each case. Also, the IC50 result in experiment [7] was “Not Active”. Also, the Ki result in experiment [2], in experiment [4] and in experiment [6] was “Not Active” throughout.
As to `COc1ccc2cc(CCC(C)=O)ccc2c1` [NABUMETONE], the IC50 in experiment [1] (read-out: IC50) is 1.87 µM; in experiment [2], “Not Active”; in experiment [3], “Not Active”; in experiment [4], “Not Active”; in experiment [5] it was “Not Active”; in experiment [6], “Not Active”. Moreover, in experiment [7], the IC50 entry is “Not Active”. The Ki in experiment [1] is 1.85 µM; in experiment [2], “Not Active”; in experiment [4], “Not Active”; in experiment [6] it was “Not Active”.
Consider `O=C(O)c1cccnc1` [NIACIN], for which the IC50 entry in experiment [1] (mdck), in experiment [2], in experiment [3], in experiment [4], in experiment [5] and in experiment [6] was “Not Active” in each case. Also, the 50% inhibitory concentration (IC50) entry in experiment [7] is listed as “Not Active”. In addition, the Ki entry in experiment [2], in experiment [4] and in experiment [6] was “Not Active” throughout.
For the compound `CNC(=C[N+](=O)[O-])NCCSCc1csc(CN(C)C)n1` [NIZATIDINE], the IC50 result in experiment [1] (mdck), in experiment [2], in experiment [3], in experiment [4], in experiment [5] and in experiment [6] was “Not Active” throughout. Also, the IC50 result in experiment [7] is given as “Not Active”. The Ki entry in experiment [2], in experiment [4] and in experiment [6] was “Not Active” throughout.
In the case of `C[C@]12C/C(=C/O)C(=O)C[C@@H]1CC[C@@H]1[C@@H]2CC[C@@]2(C)[C@H]1CC[C@]2(C)O` [OXYMETHOLONE], the IC50 entry in experiment [1] (mdck), in experiment [2], in experiment [3], in experiment [4], in experiment [5] and in experiment [6] was “Not Active” each time. Moreover, the IC50 result in experiment [7] is reported as “Not Active”. The Ki result in experiment [2], in experiment [4] and in experiment [6] was “Not Active” throughout.
Take `CC(C)(CO)C(O)C(=O)NCCCO` (configuration not stated) [PANTHENOL]: the IC50 result in experiment [1] (mdck), in experiment [2], in experiment [3], in experiment [4], in experiment [5] and in experiment [6] was “Not Active” throughout. Moreover, in experiment [7], the IC50 result is “Not Active”. The Ki result in experiment [2], in experiment [4] and in experiment [6] was “Not Active” in each case.
With `COc1ccc(Cc2nccc3cc(OC)c(OC)cc23)cc1OC` [PAPAVERINE], the concentration for half-maximal inhibition (IC50) entry in experiment [1] (mdck), in experiment [2], in experiment [3], in experiment [4], in experiment [5] and in experiment [6] was “Not Active” each time. Further, the IC50 entry in experiment [7] is recorded as “Not Active”. For the same compound, the Ki entry in experiment [2], in experiment [4] and in experiment [6] was “Not Active” in each case.
On to `OCCN1CCN(CCCN2c3ccccc3Sc3ccc(Cl)cc32)CC1` [PERPHENAZINE], for which the IC50 entry in experiment [1] (mdck), in experiment [2], in experiment [3], in experiment [4], in experiment [5] and in experiment [6] was “Not Active” in each case. In experiment [7], the IC50 result is given as “Not Active”. Moreover, the Ki entry in experiment [2], in experiment [4] and in experiment [6] was “Not Active” each time.
As for `CCCCC1C(=O)N(c2ccccc2)N(c2ccccc2)C1=O` [PHENYLBUTAZONE], the IC50 entry in experiment [1] (mdck), in experiment [2], in experiment [3], in experiment [4], in experiment [5] and in experiment [6] was “Not Active” in each case. Also, in experiment [7], the IC50 entry is “Not Active”. Moreover, the Ki entry in experiment [2], in experiment [4] and in experiment [6] was “Not Active” in each case.

The IC50 is the midpoint of a concentration-inhibition curve. By Ki is commonly meant the equilibrium dissociation constant of an inhibitor or competing ligand from its target.
